Results from patent publication US9322034B2, “Compositions and methods for detecting and modulating cell death by a translation regulated gene expression system” (Wayne State University, priority 2007, dated 2016).
Where a SMILES comes first, the peptide text is derived from it. The star is where a group is joined. Cbz = O=C(OCc1ccccc1)*

Experiments:
HEK293 cells = assay: Trypan blue staining of HEK293 cells treated with toxic agents; type: cell-based, human; conditions: 50 micromolar, within 24 hr
[1] = tested on: HEK293 cell pools expressing the fLUC-TRplp-EYFP, fLUC-TRdm-EYFP, pcuLf-TRplp-EYFP or pcuLf-TRdm-EYFP expression cassettes; assay: Cytotoxicity assay by Western blot, bicistronic TR cassettes; type: cell-based, human; conditions: toxic doses
[2] = tested on: HEK293 or HT1080 cells transduced with rAAV TRplp-EYFP / TRdm-EYFP; assay: TR-EYFP translation after rAAV transduction; type: cell-based, human; conditions: 25 μM, 24 hr
Description: This example is to show delivery of the TRplp-EYFP and TRdm-EYFP cassettes to HEK293 and HT1080 cells using rAAV transduction. HEK293 or HT1080 cells are plated on flame sterilized glass slides and grown until 60-70% confluent (1-2 days), washed with L-DMEM (DMEM containing 2% fetal bovine serum), and infected with rAAV for 2 hr. The medium is replaced with DMEM, 10% FBS and the cells are incubated for 24 hours. Infected cells are treated with DMEM, 10% FBS supplemented with toxic levels of MG132 (25 μM) for 24 hr prior to direct microscopic or Western analysis as described above.

TKsr39 protein = TKsr39 protein (Human herpesvirus 1, UniProt Q9QNF7, A168F/F161L/I160F/L159I/L169M); conditions: TKsr39 versus wildtype TK protein; cited from earlier work
[3] = tested on: HEK293 TRplp-TKsr39 cells; assay: Pro-drug induced cell death, Trypan blue cell viability assay; type: cell-based, human
Description: (§1) In this example, HEK293, HEK CMV-EYFP, and HEK TRplp-TKsr39 cells are treated with various amounts of the pro-drug ganciclovir and tested for cell death after 4 days incubation using the Trypan blue staining assay. Cells are plated into 6-well trays, grown to 70-80% confluence, and treated with DMEM, 10% FBS supplemented with ganciclovir (0, 10 nM, 100 nM, 1 μM, 5 μM or 10 μM) for 4 days. Viable cell counts are performed at 3 days and 4 days post-incubation (FIG. 13).

[4] = Pro-drug induced cell death, Trypan blue cell viability assay, control cells; type: cell-based; conditions: human, HEK293 or HEK CMV-EYFP cells (control cells); any concentration (10 nM to 10 μM), 3 or 4 days; read-out: cells remaining Trypan blue viable
Description: as §1

TKsr39 protein, sequence (Q9QNF7 whole entry A168F/F161L/I160F/L159I/L169M, looked up): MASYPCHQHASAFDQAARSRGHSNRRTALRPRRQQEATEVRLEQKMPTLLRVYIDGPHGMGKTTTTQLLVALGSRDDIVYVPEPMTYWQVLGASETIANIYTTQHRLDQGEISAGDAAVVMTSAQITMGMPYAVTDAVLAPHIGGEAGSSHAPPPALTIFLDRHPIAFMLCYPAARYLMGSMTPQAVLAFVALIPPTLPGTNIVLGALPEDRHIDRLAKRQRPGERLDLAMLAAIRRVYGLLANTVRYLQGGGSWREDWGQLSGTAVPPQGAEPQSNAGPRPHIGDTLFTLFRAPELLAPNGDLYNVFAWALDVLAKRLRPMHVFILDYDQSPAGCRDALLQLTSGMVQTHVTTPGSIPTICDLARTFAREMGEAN

Compound	cell death in HEK293 cells as determined by Trypan blue staining (HEK293 cells)	EYFP translation in cell pools expressing the bicistronic TR cassettes (Western blot, FIG. 4) [1]	translation of EYFP in rAAV transduced cells compared to uninfected control cells [2]	prodrug binding of TKsr39 protein, higher than the wildtype protein (TKsr39 protein)	cell viability compared to untreated cells ([3]; 10 nM, 3 days)	cell viability compared to untreated cells ([3]; 100 nM, 3 days)	viability at 10 µM ([3]; Homo sapiens, HEK293, 72 h, 3 days)	viability at 0.01 µM ([3]; Homo sapiens, HEK293, 96 h, 10 nM, 4 days)	viability at 10 µM ([3]; Homo sapiens, HEK293, 96 h, 4 days)	viability [4]
CC(C)C[C@@H](C=O)NC(=O)[C@H](CC(C)C)NC(=O)[C@H](CC(C)C)NC(=O)OCc1ccccc1 [MG132] (Cbz-Leu-Leu-Leu-aldehyde)	complete cell death	induce EYFP translation	exhibit selective translation of the fluorescent EYFP protein							
Nc1nc(O)c2ncn(COC(CO)CO)c2n1 [ganciclovir]				83 fold	does not exhibit any decrease in cell viability	slight decrease	86%	99.7%	33.7%	98 to 100%
